Tested on: Metabolism protein genes
Test: DNA chip mRNA expression in yeast, metabolism protein genes (Table 7)
Format: cell-based, Saccharomyces cerevisiae S288C
Outline: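 S. cerevisiae S288C grown at 25° C. in YPD to log phase, then exposed 2 h to a toxicant at a growth-inhibiting, non-lethal concentration; untreated cells as control. Poly(A) mRNA reverse-transcribed with Cy3-dUTP or Cy5-dUTP, hybridized >12 h at 65° C. to whole-genome yeast DNA chip; value = fluorescence ratio treated/untreated.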

In the case of “manganese ethylenebis(dithiocarbamate) [(8)]”, the “The level of expressed mRNA in the presence of chemical substance/The level of expressed mRNA in the absence of chemical substance” value (yeast gene YJR155W) is reported as 10.6, the “The level of expressed mRNA in the presence of chemical substance/The level of expressed mRNA in the absence of chemical substance” value (yeast gene YKL035W) is reported as 1.0 and the “level of expressed mRNA in the presence/in the absence of chemical substance” value (yeast gene YKL060C) is reported as 1.1. For the same substance, the “The level of expressed mRNA in the presence of chemical substance/The level of expressed mRNA in the absence of chemical substance” value (yeast gene YKL091C) was 1.3, the “The level of expressed mRNA in the presence of chemical substance/The level of expressed mRNA in the absence of chemical substance” value (yeast gene YKL104C) was 1.1 and the “level of expressed mRNA in the presence/in the absence of chemical substance” value (yeast gene YKL148C) was 0.8. For the same substance, the “The level of expressed mRNA in the presence of chemical substance/The level of expressed mRNA in the absence of chemical substance” value (yeast gene YKL152C) was 1.0, the “level of expressed mRNA in the presence/in the absence of chemical substance” value (yeast gene YKL157W) was 1.1 and the “The level of expressed mRNA in the presence of chemical substance/The level of expressed mRNA in the absence of chemical substance” value (yeast gene YKL213C) was 1.1. The “The level of expressed mRNA in the presence of chemical substance/The level of expressed mRNA in the absence of chemical substance” value (yeast gene YKL215C) was 1.1, the “level of expressed mRNA in the presence/in the absence of chemical substance” value (yeast gene YKR034W) was 1.5 and the “The level of expressed mRNA in the presence of chemical substance/The level of expressed mRNA in the absence of chemical substance” value (yeast gene YLL058W) was 0.9. The “level of expressed mRNA in the presence/in the absence of chemical substance” value (yeast gene YLR006C) was 0.9, the “level of expressed mRNA in the presence/in the absence of chemical substance” value (yeast gene YLR044C) was 0.7 and the “level of expressed mRNA in the presence/in the absence of chemical substance” value (yeast gene YLR056W) was 0.9. For the same substance, the “level of expressed mRNA in the presence/in the absence of chemical substance” value (yeast gene YLR058C) was 0.3, the “level of expressed mRNA in the presence/in the absence of chemical substance” value (yeast gene YLR081W) was 0.9 and the “level of expressed mRNA in the presence/in the absence of chemical substance” value (yeast gene YLR089C) was 0.7. For the same substance, the “The level of expressed mRNA in the presence of chemical substance/The level of expressed mRNA in the absence of chemical substance” value (yeast gene YLR180W) was 0.9, the “The level of expressed mRNA in the presence of chemical substance/The level of expressed mRNA in the absence of chemical substance” value (yeast gene YLR273C) was 1.3 and the “level of expressed mRNA in the presence/in the absence of chemical substance” value (yeast gene YLR284C) was 1.2. For the same substance, the “The level of expressed mRNA in the presence of chemical substance/The level of expressed mRNA in the absence of chemical substance” value (yeast gene YLR299W) was 1.0, the “The level of expressed mRNA in the presence of chemical substance/The level of expressed mRNA in the absence of chemical substance” value (yeast gene YLR300W) was 0.8 and the “level of expressed mRNA in the presence/in the absence of chemical substance” value (yeast gene YLR304C) was 0.6. The “The level of expressed mRNA in the presence of chemical substance/The level of expressed mRNA in the absence of chemical substance” value (yeast gene YLR307W) was 1.2, the “The level of expressed mRNA in the presence of chemical substance/The level of expressed mRNA in the absence of chemical substance” value (yeast gene YLR348C) was 0.9 and the “level of expressed mRNA in the presence/in the absence of chemical substance” value (yeast gene YLR354C) was 1.4. For the same substance, the “level of expressed mRNA in the presence/in the absence of chemical substance” value (yeast gene YLR372W) was 0.9, the “level of expressed mRNA in the presence/in the absence of chemical substance” value (yeast gene YML022W) was 1.1 and the “The level of expressed mRNA in the presence of chemical substance/The level of expressed mRNA in the absence of chemical substance” value (yeast gene YML054C) was 1.5. The “The level of expressed mRNA in the presence of chemical substance/The level of expressed mRNA in the absence of chemical substance” value (yeast gene YML070W) was 1.3, the “The level of expressed mRNA in the presence of chemical substance/The level of expressed mRNA in the absence of chemical substance” value (yeast gene YML100W) was 0.7 and the “The level of expressed mRNA in the presence of chemical substance/The level of expressed mRNA in the absence of chemical substance” value (yeast gene YMR008C) was 0.5. The “level of expressed mRNA in the presence/in the absence of chemical substance” value (yeast gene YMR011W) was 1.1, the “level of expressed mRNA in the presence/in the absence of chemical substance” value (yeast gene YMR015C) was 0.7 and the “The level of expressed mRNA in the presence of chemical substance/The level of expressed mRNA in the absence of chemical substance” value (yeast gene YMR020W) was 1.2. The “level of expressed mRNA in the presence/in the absence of chemical substance” value (yeast gene YMR083W) was 1.1, the “The level of expressed mRNA in the presence of chemical substance/The level of expressed mRNA in the absence of chemical substance” value (yeast gene YMR105C) was 1.1 and the “The level of expressed mRNA in the presence of chemical substance/The level of expressed mRNA in the absence of chemical substance” value (yeast gene YMR189W) was 0.4. The “level of expressed mRNA in the presence/in the absence of chemical substance” value (yeast gene YMR205C) was 0.7, the “level of expressed mRNA in the presence/in the absence of chemical substance” value (yeast gene YMR261C) was 0.7 and the “The level of expressed mRNA in the presence of chemical substance/The level of expressed mRNA in the absence of chemical substance” value (yeast gene YMR271C) was 1.8. For the same substance, the “The level of expressed mRNA in the presence of chemical substance/The level of expressed mRNA in the absence of chemical substance” value (yeast gene YMR296C) was 0.5, the “level of expressed mRNA in the presence/in the absence of chemical substance” value (yeast gene YMR323W) was 0.8 and the “The level of expressed mRNA in the presence of chemical substance/The level of expressed mRNA in the absence of chemical substance” value (yeast gene YNL012W) was 1.8. For the same substance, the “level of expressed mRNA in the presence/in the absence of chemical substance” value (yeast gene YNL025C) was 1.0, the “The level of expressed mRNA in the presence of chemical substance/The level of expressed mRNA in the absence of chemical substance” value (yeast gene YNL045W) was 0.7 and the “The level of expressed mRNA in the presence of chemical substance/The level of expressed mRNA in the absence of chemical substance” value (yeast gene YNL104C) was 0.9. The “The level of expressed mRNA in the presence of chemical substance/The level of expressed mRNA in the absence of chemical substance” value (yeast gene YNL106C) was 0.8, the “The level of expressed mRNA in the presence of chemical substance/The level of expressed mRNA in the absence of chemical substance” value (yeast gene YNL169C) was 0.8 and the “level of expressed mRNA in the presence/in the absence of chemical substance” value (yeast gene YNL192W) was 0.8. For the same substance, the “The level of expressed mRNA in the presence of chemical substance/The level of expressed mRNA in the absence of chemical substance” value (yeast gene YNL231C) was 1.5, the “The level of expressed mRNA in the presence of chemical substance/The level of expressed mRNA in the absence of chemical substance” value (yeast gene YNL322C) was 0.7 and the “The level of expressed mRNA in the presence of chemical substance/The level of expressed mRNA in the absence of chemical substance” value (yeast gene YNL331C) was 13.1. The “The level of expressed mRNA in the presence of chemical substance/The level of expressed mRNA in the absence of chemical substance” value (yeast gene YNL332W) was 1.5, the “The level of expressed mRNA in the presence of chemical substance/The level of expressed mRNA in the absence of chemical substance” value (yeast gene YNR019W) was 0.7 and the “The level of expressed mRNA in the presence of chemical substance/The level of expressed mRNA in the absence of chemical substance” value (yeast gene YNR033W) was 1.1. For the same substance, the “The level of expressed mRNA in the presence of chemical substance/The level of expressed mRNA in the absence of chemical substance” value (yeast gene YNR059W) was 1.3, the “The level of expressed mRNA in the presence of chemical substance/The level of expressed mRNA in the absence of chemical substance” value (yeast gene YOL058W) was 1.6 and the “level of expressed mRNA in the presence/in the absence of chemical substance” value (yeast gene YOL086C) was 0.8. The “level of expressed mRNA in the presence/in the absence of chemical substance” value (yeast gene YOL108C) was 1.3, the “level of expressed mRNA in the presence/in the absence of chemical substance” value (yeast gene YOL116W) was 1.3 and the “The level of expressed mRNA in the presence of chemical substance/The level of expressed mRNA in the absence of chemical substance” value (yeast gene YOL126C) was 0.9. The “The level of expressed mRNA in the presence of chemical substance/The level of expressed mRNA in the absence of chemical substance” value (yeast gene YOL153C) was 1.0, the “level of expressed mRNA in the presence/in the absence of chemical substance” value (yeast gene YOL156W) was 1.0 and the “The level of expressed mRNA in the presence of chemical substance/The level of expressed mRNA in the absence of chemical substance” value (yeast gene YOL165C) was 17.8. For the same substance, the “level of expressed mRNA in the presence/in the absence of chemical substance” value (yeast gene YOR002W) was 0.9, the “level of expressed mRNA in the presence/in the absence of chemical substance” value (yeast gene YOR085W) was 0.7 and the “The level of expressed mRNA in the presence of chemical substance/The level of expressed mRNA in the absence of chemical substance” value (yeast gene YOR099W) was 0.9. The “level of expressed mRNA in the presence/in the absence of chemical substance” value (yeast gene YOR103C) was 1.0, the “level of expressed mRNA in the presence/in the absence of chemical substance” value (yeast gene YOR108W) was 0.9 and the “level of expressed mRNA in the presence/in the absence of chemical substance” value (yeast gene YOR128C) was 0.6. For the same substance, the “The level of expressed mRNA in the presence of chemical substance/The level of expressed mRNA in the absence of chemical substance” value (yeast gene YOR130C) was 0.8, the “level of expressed mRNA in the presence/in the absence of chemical substance” value (yeast gene YOR142W) was 0.8 and the “level of expressed mRNA in the presence/in the absence of chemical substance” value (yeast gene YOR176W) was 1.0. For the same substance, the “level of expressed mRNA in the presence/in the absence of chemical substance” value (yeast gene YOR178C) was 0.9, the “level of expressed mRNA in the presence/in the absence of chemical substance” value (yeast gene YOR251C) was 1.1 and the “The level of expressed mRNA in the presence of chemical substance/The level of expressed mRNA in the absence of chemical substance” value (yeast gene YOR336W) was 0.8. The “The level of expressed mRNA in the presence of chemical substance/The level of expressed mRNA in the absence of chemical substance” value (yeast gene YOR347C) was 0.8, the “level of expressed mRNA in the presence/in the absence of chemical substance” value (yeast gene YOR348C) was 0.8 and the “The level of expressed mRNA in the presence of chemical substance/The level of expressed mRNA in the absence of chemical substance” value (yeast gene YPL017C) was 1.3. For the same substance, the “level of expressed mRNA in the presence/in the absence of chemical substance” value (yeast gene YPL028W) was 0.9, the “level of expressed mRNA in the presence/in the absence of chemical substance” value (yeast gene YPL057C) was 1.0 and the “level of expressed mRNA in the presence/in the absence of chemical substance” value (yeast gene YPL135W) was 1.0. The “level of expressed mRNA in the presence/in the absence of chemical substance” value (yeast gene YPL148C) was 0.9, the “The level of expressed mRNA in the presence of chemical substance/The level of expressed mRNA in the absence of chemical substance” value (yeast gene YPR026W) was 1.0 and the “level of expressed mRNA in the presence/in the absence of chemical substance” value (yeast gene YPR113W) was 0.9. The “level of expressed mRNA in the presence/in the absence of chemical substance” value (yeast gene YPR165W) was 1.0, the “The level of expressed mRNA in the presence of chemical substance/The level of expressed mRNA in the absence of chemical substance” value (yeast gene YPR167C) was 5.5 and the “level of expressed mRNA in the presence/in the absence of chemical substance” value (yeast gene YPR183W) was 1.0.

Source: patent US8192962B2, “Processes for detecting toxic substances” (Daikin Industries, Ltd., priority 2001, dated 2012)
